Read-outs that look alike come from different tables or passages of the source.
What was measured:
S1P1 E^121A mutant = S1P1 E^121A mutant (Homo sapiens, UniProt P21453, E121A); format: cell-based; conditions: for EC50: without W146
[1] = target: human wild-type S1P1 (WT) (Homo sapiens, UniProt P21453); format: cell-based
S1P1 R^120A mutant = S1P1 R^120A mutant (Homo sapiens, UniProt P21453, R120A); format: cell-based; conditions: for Emax: CHO-K1; for EC50: without W146
[2] = Brain exposure in C57Bl6 mice; format: in vivo; conditions: C57Bl6, mouse, ip, 10 mg/kg
Water solubility = format: physicochemical
human S1P1-GFP [3] = target: T1, human S1P1-GFP (Homo sapiens, UniProt P21453); assay: S1P1-GFP internalization in HEK293 cells; format: cell-based
[4] = Pharmacokinetics in Sprague Dawley rats; format: in vivo; conditions: rat
human S1P1-GFP [5] = target: T1, human S1P1-GFP; assay: S1P1-GFP phosphorylation, P^32-orthophosphate labeled HEK293 cells; format: cell-based
[6] = Serum drug concentration in the lymphopenia studies; format: in vivo, C57BL6 mice; conditions: mice; for serum drug concentration (± SD): W146 20 mg/kg + CYM-5442 2 mg/kg group, 5 h
human S1P1 = human S1P1 (Homo sapiens, UniProt P21453); format: cell-based
[7] = test system: blood lymphocytes (WBC, B220+, CD4+, CD8+); assay: CYM-5442 mediated lymphopenia in mice; format: in vivo, C57BL6 mice; conditions: for B220^+ cells, percent relative to animals receiving both drug vehicles / CD4^+ cells, percent relative to animals receiving both drug vehicles / CD8^+ cells, percent relative to animals receiving both drug vehicles: W146 20 mg/kg i.p. 30 min before, CYM-5442 2 mg/kg
human S1P1-GFP [8] = target: T1, human S1P1-GFP; assay: S1P1-GFP ubiquitination in HEK293 cells; format: cell-based
human S1P5 = human S1P5 (Homo sapiens, UniProt Q9H228); assay: S1P5 agonist format, TANGO S1P5-bla U2OS cells; format: cell-based
[9] = EC50, activation of p42/p44 MAPK phosphorylation, WT, without W146
[10] = Sprague Dawley, plasma, iv, 1 mg/kg
[11] = Sprague Dawley, plasma, po, 2 mg/kg

Chain of human wild-type S1P1 (WT) (P21453 whole entry): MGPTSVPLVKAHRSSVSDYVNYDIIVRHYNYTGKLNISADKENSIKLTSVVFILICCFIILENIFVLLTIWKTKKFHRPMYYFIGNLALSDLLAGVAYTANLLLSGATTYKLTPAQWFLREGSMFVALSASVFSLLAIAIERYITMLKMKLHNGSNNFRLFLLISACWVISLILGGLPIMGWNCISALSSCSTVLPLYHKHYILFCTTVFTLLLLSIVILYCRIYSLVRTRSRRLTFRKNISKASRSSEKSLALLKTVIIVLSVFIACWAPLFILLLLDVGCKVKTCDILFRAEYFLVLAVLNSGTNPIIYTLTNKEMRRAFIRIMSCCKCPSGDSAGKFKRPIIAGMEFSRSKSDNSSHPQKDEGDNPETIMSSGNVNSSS
Chain of human S1P1 (P21453 whole entry): as above
T1 sequence (P21453 whole entry): as above
Chain of S1P1 E^121A mutant (P21453 whole entry E121A): as the sequence (P21453 whole entry) above, with E121A counted along it
Chain of S1P1 R^120A mutant (P21453 whole entry R120A): as the sequence (P21453 whole entry) above, with R120A counted along it
Chain of human S1P5 (Q9H228 whole entry): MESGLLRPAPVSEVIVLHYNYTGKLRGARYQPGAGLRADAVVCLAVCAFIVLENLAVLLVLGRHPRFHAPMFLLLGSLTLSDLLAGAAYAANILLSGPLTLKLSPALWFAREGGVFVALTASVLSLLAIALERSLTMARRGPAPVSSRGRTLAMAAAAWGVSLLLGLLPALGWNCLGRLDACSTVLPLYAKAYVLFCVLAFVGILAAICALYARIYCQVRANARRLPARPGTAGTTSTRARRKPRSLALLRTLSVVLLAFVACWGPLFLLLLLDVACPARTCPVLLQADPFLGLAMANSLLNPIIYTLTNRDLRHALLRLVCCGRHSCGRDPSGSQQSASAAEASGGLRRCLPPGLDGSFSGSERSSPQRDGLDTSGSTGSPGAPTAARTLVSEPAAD

With `CCCCCCCCCCCCC/C=C/[C@@H](O)[C@@H](N)COP(=O)(O)O` [S1P, Sphingosine-1 phosphate] the “p42/p44 MAPK activation in the mutant” value (S1P1 E^121A mutant; E^121A) was “did not lead to significant p42/p44 MAPK activation”, the EC50 ([1]; EC50, activation of p42/p44 MAPK phosphorylation, WT, 10 μM W146 prior to agonist) was 140 nM and the EC50 [1, 9] was 2.3 nM. For the same compound, the EC50 ([1]; LogEC50, WT, without W146, log EC50 printed negative, 5 min stimulation) was 2.51 nM, the “rightward shift in potency by 10 μM W146” value ([1]; WT, agonist with W146 vs agonist alone) was 60 fold and the Emax (S1P1 R^120A mutant) was 25%. The “p42/p44 MAPK activity in the mutant” value (S1P1 R^120A mutant; R^120A) was “near loss of p42/p44 MAPK activity”.
With `N#CC(=C(/N)Sc1ccccc1N)/C(C#N)=C(/N)Sc1ccccc1N` [U0126] the “block of S1P and CYM-5442 stimulated P42/P44 MAPK phosphorylation” value ([1]; 10 μM pre-incubation) was “completely blocked”.
With `CCOc1ccc(-c2nc(-c3cccc4c3CCC4NCCO)no2)cc1OCC` (centres unmarked) [CYM-5442, 2-(4-(5-(3,4-diethoxyphenyl)-1,2,4-oxadiazol-3-yl)-2,3-dihydro-1H-inden-1-ylamino) ethanol] the Emax (S1P1 E^121A mutant; CHO-K1) was 100%, the “rightward shift in potency by W146 preincubation” value (S1P1 E^121A mutant; E^121A) was 10 fold and the EC50 (S1P1 E^121A mutant; LogEC50, E^121A, log EC50 printed negative) was 126 nM. The EC50 (S1P1 E^121A mutant; mean EC50, activation of p42/p44 MAPK, E^121A) was 134 nM, the concentration at 2 h ([2]; brain) was 13700 ± 2900 nM and the concentration at 2 h ([2]; plasma) was 1080 ± 300 nM. The water solubility (Water solubility) was “moderately water-soluble”, the Emax ([1]; CHO-K1) was 70% and the EC50 [1, 9] was 46 nM. The S1P1-GFP internalization (human S1P1-GFP [3]; 500 nM) was “stimulated the internalization of S1P1-GFP receptor”, the AUC [4, 10] was 0.57 ± 0.1 µM·h and the Cmax [4, 10] was 220 ± 18 nM. For the same compound, the MRT [4, 10] was 3.54 ± 0.38 h, the Tmax [4, 10] was 0.083 h and the clearance [4, 10] was 72.9 ± 11.7 mL/min/kg. It also gave a half-life ([4]; Sprague Dawley, plasma, iv, 1 mg/kg, half-life (t1/2)) of 0.833 h, a half-life ([4]; Sprague Dawley, plasma, iv, 1 mg/kg, t1/2, rat, 1 mg/kg i.v.) of 3.05 ± 0.37 h and a bioavailability ([4]; Sprague Dawley, plasma, oral, 2 mg/kg) of 20.5 ± 4.67%. It also gave an AUC [4, 11] of 0.23 ± 0.053 µM·h, a Cmax [4, 11] of 36 ± 7.2 nM and an MRT [4, 11] of 6.35 ± 2.1 h. It also gave a Tmax [4, 11] of 1.17 ± 0.76 h, a half-life ([4]; Sprague Dawley, plasma, po, 2 mg/kg, half-life (t1/2), P.O.) of 3 h and a half-life ([4]; Sprague Dawley, plasma, po, 2 mg/kg, t1/2, rat, 2 mg/kg PO) of 4 ± 1.45 h. The “AUC (% extrap,ob)” value ([4]; 1 mg/kg i.v.) was 11.35 ± 14.20%, the “AUC (% extrap,ob)” value ([4]; 2 mg/kg PO) was 27.80 ± 14.20% and the “Cl” value ([4]; 2 mg/kg PO) was 360.1 ± 73.3 mL/min/kg. The S1P1 phosphorylation (human S1P1-GFP [5]; 500 nM) was “stimulated S1P1 phosphorylation in a time-dependent manner”, the “serum drug concentration (± SD)” value [6] was 190 ± 40 nM and the “serum CYM-5442 concentration required for induction and maintenance of lymphopenia” value ([6]; i.p.) was ~50 nM. The EC50 (human S1P1) was 1.35 nM, the “agonist efficacy compared to SEW2871” value (human S1P1; CRE reporter, agonist format) was “full agonist compared to SEW2871” and the “more potent than SEW2871 in vitro” value (human S1P1; depending on which agonist format was used) was 10-50 fold. For the same compound, the Emax (human S1P1; read-out: Agonist format (Emax)) was 100%, the “decrease of B-lymphocytes, of vehicle” value ([7]; abstract) was 65% and the “decrease of T-lymphocytes, of vehicle” value ([7]; abstract) was 85%. The “reduction of CD4^+, CD8^+ and B220^+ cell counts, of vehicle” value ([7]; mice, 2 mg/kg, 5 h) was “approximately 50%”, the “decrease of B220^+ B-cells compared to vehicle” value ([7]; mice, 10 mg/kg i.p., 5 h) was 63% and the “decrease of CD4^+ T-cell counts, of vehicle” value ([7]; mice, 10 mg/kg i.p., 5 h) was 83%. The “decrease of CD8^+ T-cell counts, of vehicle” value ([7]; mice, 10 mg/kg i.p., 5 h) was 84%, the “decrease of WBC counts vs. vehicle” value ([7]; mice, 10 mg/kg i.p., 5 h) was 64% and the “% CD4^+” value ([7]; mice, 10 mg/kg i.p., 5 h, vehicle 11.5±0.2) was 1.9±0.2 %. For the same compound, the “WBC (K/mm^3)” value ([7]; mice, 10 mg/kg i.p., 5 h, vehicle 11.9±0.2) was 4.3±0.4 K/mm^3, the “% CD8^+” value ([7]; mice, 10 mg/kg i.p., 5 h, vehicle 11.9±0.3) was 1.9±0.4 % and the “% B220^+” value ([7]; mice, 10 mg/kg i.p., 5 h, vehicle 40.5±0.6) was 14.7±0.5 %. For the same compound, the “B220^+ cells, percent relative to animals receiving both drug vehicles” value ([7]; mice, 5 h) was 46.0±18.1 %, the “CD4^+ cells, percent relative to animals receiving both drug vehicles” value ([7]; mice, 5 h) was 53.5 ± 6.5 % and the “CD8^+ cells, percent relative to animals receiving both drug vehicles” value ([7]; mice, 5 h) was 47.4±7.5 %. For the same compound, the S1P1-GFP receptor ubiquitination (human S1P1-GFP [8]; 1 h incubation) was “stimulated receptor ubiquitination (UB-S1P1-GFP) to AFD-R levels”, the “selectivity for S1P1 over S1P5” value (human S1P5) was 10,000 fold and the Emax (human S1P5; U2OS, read-out: Agonist format (Emax)) was 20%. The Emax (S1P1 R^120A mutant) was 100%, the EC50 (S1P1 R^120A mutant; EC50, p42/p44 MAPK activity, R^120A) was 67 nM and the EC50 (S1P1 R^120A mutant; LogEC50, R^120A, log EC50 printed negative) was 63.1 nM. The “rightward shift in EC50 by 10 μM W146” value (S1P1 R^120A mutant; R^120A) was 3 fold.
For `CCCCCCc1cccc(NC(=O)[C@H](N)CCP(=O)(O)O)c1` [W146, (R)-3-Amino-(3-hexylphenylamino)-4-oxobutylphosphonic acid, reference compound], the “inhibition of CYM-5442-mediated p42/p44 MAPK phosphorylation” value ([1]; WT cells, 10 μM W146 preincubation) was “complete inhibition”, the “effect of antagonist alone on internalization” value (human S1P1-GFP [3]) was “did not have an effect on internalization” and the “effect on internalization of S1P1-GFP by CYM-5442” value (human S1P1-GFP [3]; 10 μM preincubation) was “completely blocked”. For the same compound, the “effect of antagonist alone on S1P1 phosphorylation” value (human S1P1-GFP [5]; 10 μM) was “no effect”, the “effect on CYM-5442-mediated S1P1 phosphorylation” value (human S1P1-GFP [5]; 10 μM, 30 min pre-incubation) was “completely abolished” and the “serum drug concentration (± SD)” value [6] was 1760 ± 310 nM. For the same compound, the “reversal of CYM-5442 effects on B-220^+, CD4^+ and CD8^+ cell counts” value ([7]; W146 20 mg/kg 30 min before CYM-5442 2 mg/kg) was “partially recover”, the “B220^+ cells, percent relative to animals receiving both drug vehicles” value ([7]; mice, 5 h) was 114.7±5.9% and the “CD4^+ cells, percent relative to animals receiving both drug vehicles” value ([7]; mice, 5 h) was 108.1 ±17.4%. For the same compound, the “CD8^+ cells, percent relative to animals receiving both drug vehicles” value ([7]; mice, 5 h) was 112.2±19.6% and the “effect on CYM-5442-stimulated S1P1 ubiquitination” value (human S1P1-GFP [8]; pre-incubation 30 min) was “nearly abolish”.
